# Biological target: T1, LRRK2 wild type (recombinant human, catalytic domain amino acids 970-2527, GST-tagged) (Homo sapiens, UniProt Q5S007)
# T1 construct: The wild type used was recombinant human, catalytic domain (amino acids 970-2527) GST-tagged, expressed in insect cells; GST; purchased Invitrogen Corporation PV4873; host or cells: insect cells
# Assay: LRRK2 wild type protein kinase assay ([γ-33P] ATP, peptide substrate […]), IC50
# Format: biochemical
# Settings: LRRK2 (variant not given); read-out: Potency score, LRRK2 IC50
# Source text: All LRRK2 protein kinases were of human origin and were sourced from Invitrogen Corporation (Carlsbad, Calif. 92008 USA) unless otherwise indicated. The active mutant used was recombinant human, catalytic domain (amino acids 970-2527) containing a G2019S mutation, GST-tagged, expressed in insect cells (Invitrogen Cat#PV4881). The wild type used was recombinant human, catalytic domain (amino acids 970-2527) GST-tagged, expressed in insect cells (Invitrogen Cat#PV4873). The kinase dead mutant used was recombinant human, catalytic domain (amino acids 970-2527) containing a D1994A mutation, GST-tagged, expressed in insect cells (Invitrogen Cat#PM4041AE). No special measures were taken to activate any of the kinases.
# All assays were carried out at room temperature (˜21° C.) and were linear with respect to time and enzyme concentration under the conditions used. Assays were performed for 180 min in a 96 well format. LRRK2 was present at a concentration of approximately 5 nM. The enzyme was diluted and assayed in 50 mM Tris-HCl pH7.5, 0.1 mM EGTA, 1 mM DTT and 10 mM MgCl2. The concentration of magnesium chloride in the assay was 10 mM. The [γ-33P] […] The peptide substrate in the assay was […] at 100 μM.
# The assays were initiated with Mg/ATP and stopped by the addition of 25 μl/well 50% orthophosphoric acid. Reactions were harvested onto Whatman P81 Unifilter Plates (Fisher Scientific. Loughborough, LE115RG, UK. Cat# FDU-105-020U) using a Tomtec harvester. (Tomtec Hamden, Conn. 06514. USA) Plates were counted using a Perkin Elmer Top Count NX7. (Perkin Elmer, Shelton Conn. 06484-4794 USA)
# IC50 values of inhibitors were determined after carrying out assays at 10 different concentrations of each compound in duplicate.
# T1 sequence (Q5S007 970-2527): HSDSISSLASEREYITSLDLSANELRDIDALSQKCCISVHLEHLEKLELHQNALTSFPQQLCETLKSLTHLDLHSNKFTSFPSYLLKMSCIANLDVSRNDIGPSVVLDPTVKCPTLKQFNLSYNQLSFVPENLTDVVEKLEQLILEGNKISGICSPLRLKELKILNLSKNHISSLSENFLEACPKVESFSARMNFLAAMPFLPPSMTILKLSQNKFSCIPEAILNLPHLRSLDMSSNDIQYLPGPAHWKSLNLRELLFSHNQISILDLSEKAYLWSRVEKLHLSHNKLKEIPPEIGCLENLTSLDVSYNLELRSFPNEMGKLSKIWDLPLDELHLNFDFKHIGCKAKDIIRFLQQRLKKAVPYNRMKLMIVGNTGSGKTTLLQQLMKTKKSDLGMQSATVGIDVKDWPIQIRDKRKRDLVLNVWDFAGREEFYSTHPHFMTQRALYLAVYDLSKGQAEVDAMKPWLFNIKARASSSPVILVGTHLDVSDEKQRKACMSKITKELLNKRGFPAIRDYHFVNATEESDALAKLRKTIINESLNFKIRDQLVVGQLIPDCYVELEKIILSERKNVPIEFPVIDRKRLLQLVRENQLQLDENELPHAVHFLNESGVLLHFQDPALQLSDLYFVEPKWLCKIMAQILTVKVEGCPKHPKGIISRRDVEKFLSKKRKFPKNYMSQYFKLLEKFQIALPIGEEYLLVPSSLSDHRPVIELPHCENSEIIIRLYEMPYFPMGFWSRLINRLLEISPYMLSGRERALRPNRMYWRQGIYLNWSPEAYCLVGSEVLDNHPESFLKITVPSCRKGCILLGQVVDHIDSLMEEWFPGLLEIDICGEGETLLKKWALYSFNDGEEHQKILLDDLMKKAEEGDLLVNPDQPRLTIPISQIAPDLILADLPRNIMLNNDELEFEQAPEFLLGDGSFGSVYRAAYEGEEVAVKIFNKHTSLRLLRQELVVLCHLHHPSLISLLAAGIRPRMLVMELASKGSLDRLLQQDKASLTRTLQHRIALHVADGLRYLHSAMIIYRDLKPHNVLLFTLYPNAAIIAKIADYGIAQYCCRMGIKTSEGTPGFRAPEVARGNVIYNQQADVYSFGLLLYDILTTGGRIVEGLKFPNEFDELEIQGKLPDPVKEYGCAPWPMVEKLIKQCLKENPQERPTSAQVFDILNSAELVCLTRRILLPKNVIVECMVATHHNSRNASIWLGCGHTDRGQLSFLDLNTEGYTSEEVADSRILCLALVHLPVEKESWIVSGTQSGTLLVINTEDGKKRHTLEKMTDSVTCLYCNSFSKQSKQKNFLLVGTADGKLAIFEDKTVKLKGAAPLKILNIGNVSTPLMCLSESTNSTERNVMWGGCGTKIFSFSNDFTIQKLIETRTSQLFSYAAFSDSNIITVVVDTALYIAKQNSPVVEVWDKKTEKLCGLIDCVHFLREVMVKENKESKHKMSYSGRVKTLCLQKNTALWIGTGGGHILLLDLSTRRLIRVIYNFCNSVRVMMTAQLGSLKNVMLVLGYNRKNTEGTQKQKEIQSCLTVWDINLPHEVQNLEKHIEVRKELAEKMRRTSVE
row,Molecule,IC50
1,"1-(3-Benzyl-piperidin-1-yl)- 3-(4-cyclohexylamino-1H- pyrazolo[4,3-c]pyridin-3-yl)- propan-1-one [Example 200]",0.1 to 1 µM
2,Cc1n[nH]c2ccnc(O[C@H]3C[C@@H]4CC[C@H]3C4)c12 (racemic) [Example 291],0.1 to 1 µM
3,"Cc1n[nH]c2ccnc(O[C@@H]3CCC[C@@H]3C)c12 (racemic) [Example 293, Cis-3-Methyl-4-(2-methyl-cyclopentyl-oxy)-1H-pyrazolo [4,3-c]pyridine]",0.1 to 1 µM
4,Cc1n[nH]c2ccnc(O[C@@H]3C[C@@H]4CC[C@H]3C4)c12 (racemic) [Example 296],< 0.1 µM
5,"Cc1n[nH]c2ccnc(O[C@@H]3CCC[C@H]3C)c12 (racemic) [Example 298, Trans-3-Methyl-4-(2-methyl-cyclopentyloxy)-1H-pyrazolo[4,3-c]pyridine]",< 0.1 µM
6,"Cc1n[nH]c2ccnc(NCc3ccc(Cl)cc3)c12 [Example 1, (4-Chloro-benzyl)-(3-methyl-1H-pyrazolo[4,3-c]pyridin-4-yl)-amine]",1 to 10 µM
7,"Cc1n[nH]c2ccnc(NCCc3ccccn3)c12 [Example 2, (3-Methyl-1H-pyrazolo[4,3-c]pyridin-4-yl)-(2-pyridin-2-yl-ethyl)-amine]",1 to 10 µM
8,"Cc1n[nH]c2ccnc(NC3CCCCC3)c12 [Example 3, Cyclohexyl-(3-methyl-1H-pyrazolo[4,3-c]pyridin-4-yl)-amine]",0.1 to 1 µM
9,"Cc1n[nH]c2ccnc(NC3CCOCC3)c12 [Example 4, (3-Methyl-1H-pyrazolo[4,3-c]pyridin-4-yl)-(tetrahydro-pyran-4-yl)-amine]",0.1 to 1 µM
10,"Cc1n[nH]c2ccnc(N3CCN(C)CC3)c12 [Example 5, 3-Methyl-4-(4-methyl-piperazin-1-yl)-1H-pyrazolo[4,3-c]pyridine]",1 to 10 µM
11,"COCCNc1nccc2[nH]nc(C)c12 [Example 6, (2-Methoxy-ethyl)-(3-methyl-1H-pyrazolo[4,3-c]pyridin-4-yl)-amine]",1 to 10 µM
12,"Cc1n[nH]c2ccnc(N3CCN(c4cccc(Cl)c4)CC3)c12 [Example 7, 4-[4-(3-Chloro-phenyl)-piperazin-1-yl]-3-methyl-1H-pyrazolo[4,3-c]pyridine]",1 to 10 µM
13,"Cc1n[nH]c2ccnc(N3CCN(Cc4cc(F)ccc4F)CC3)c12 [Example 8, 4-[4-(2,5-Difluoro-benzyl)-piperazin-1-yl]-3-methyl-1H-pyrazolo[4,3-c]pyridine]",1 to 10 µM
14,"Cc1n[nH]c2ccnc(N3CCN(c4ccccn4)CC3)c12 [Example 9, 3-Methyl-4-(4-pyridin-2-yl-piperazin-1-yl)-1H-pyrazolo[4,3-c]pyridine]",1 to 10 µM
15,"Cc1n[nH]c2ccnc(N3CCOCC3)c12 [Example 10, 3-Methyl-4-morpholin-4-yl-1H-pyrazolo[4,3-c]pyridine]",1 to 10 µM
16,"Cc1n[nH]c2ccnc(NC3CC3)c12 [Example 11, Cyclopropyl-(3-methyl-1H-pyrazolo[4,3-c]pyridin-4-yl)-amine]",1 to 10 µM
17,"Cc1n[nH]c2ccnc(N3CCc4ccccc4C3)c12 [Example 12, 2-(3-Methyl-1H-pyrazolo[4,3-c]pyridin-4-yl)-1,2,3,4-tetrahydro-isoquinoline]",1 to 10 µM
18,"Cc1n[nH]c2ccnc(NC3CCN(C)CC3)c12 [Example 13, (1-Methyl-piperidin-4-yl)-(3-methyl-1H-pyrazolo[4,3-c]pyridin-4-yl)-amine]",0.1 to 1 µM
19,"CCN(CC)CCNc1nccc2[nH]nc(C)c12 [Example 14, N,N-diethyl-N′-(3-methyl-1H-pyrazolo[4,3-c]pyridin-4-yl)-ethane-1,2-diamine]",1 to 10 µM
20,"Cc1n[nH]c2ccnc(NCCCn3ccnc3)c12 [Example 15, (3-Imidazol-1-yl-propyl)-(3-methyl-1H-pyrazolo[4,3-c]pyridin-4-yl)-amine]",0.1 to 1 µM
21,"CCCNc1nccc2[nH]nc(C)c12 [Example 16, (3-Methyl-1H-pyrazolo[4,3-c]pyridin-4-yl)-propyl-amine]",0.1 to 1 µM
22,Cc1n[nH]c2ccnc(NCC3CCOCC3)c12 [Example 17],1 to 10 µM
23,"Cc1n[nH]c2ccnc(NCC3CC3)c12 [Example 18, Cyclopropylmethyl-(3-methyl-1H-pyrazolo[4,3-c]pyridin-4-yl)-amine]",1 to 10 µM

row,Molecule,IC50
1,"Cc1n[nH]c2ccnc(N[C@H](C)c3ccccc3)c12 [Example 19, (3-Methyl-1H-pyrazolo[4,3-c]pyridin-4-yl)-((R)-1-phenyl-ethyl)-amine]",1 to 10 µM
2,"Cc1n[nH]c2ccnc(NC3CCC(F)(F)CC3)c12 [Example 20, (4,4-Difluoro-cyclohexyl)-(3-methyl-1H-pyrazolo[4,3-c]pyridin-4-yl)-amine]",0.1 to 1 µM
3,"Cc1n[nH]c2ccnc(NC3CCCC3)c12 [Example 21, Cyclopentyl-(3-methyl-1H-pyrazolo[4,3-c]pyridin-4-yl)-amine]",0.1 to 1 µM
4,"Cc1n[nH]c2ccnc(NC3CCC3)c12 [Example 22, Cyclobutyl-(3-methyl-1H-pyrazolo[4,3-c]pyridin-4-yl)-amine]",0.1 to 1 µM
5,"CCC(C)Nc1nccc2[nH]nc(C)c12 (stereo not shown) [Example 23, sec-Butyl-(3-methyl-1H-pyrazolo[4,3-c]pyridin-4-yl)-amine]",0.1 to 1 µM
6,"Cc1n[nH]c2ccnc(NCC(C)C)c12 [Example 24, Isobutyl-(3-methyl-1H-pyrazolo[4,3-c]pyridin-4-yl)-amine]",0.1 to 1 µM
7,"Cc1n[nH]c2ccnc(NCCC3CCCN3C)c12 (stereo not shown) [Example 25, (3-Methyl-1H-pyrazolo[4,3-c]pyridin-4-yl)-[2-(1-methyl-pyrrolidin-2-yl)-ethyl]-amine]",1 to 10 µM
8,"Cc1n[nH]c2ccnc(N[C@H]3CC[C@H](O)CC3)c12 [Example 26, Trans-4-(3-Methyl-1H-pyrazolo[4,3-c]pyridin-4-ylamino)-cyclohexanol]",0.1 to 1 µM
9,"Cc1n[nH]c2ccnc(NC(C)C(C)C)c12 (stereo not shown) [Example 27, (1,2-Dimethyl-propyl)-(3-methyl-1H-pyrazolo[4,3-c]pyridin-4-yl)-amine]",0.1 to 1 µM
10,"Cc1n[nH]c2ccnc(N[C@H](CO)C(C)C)c12 [Example 28, (S)-3-Methyl-2-(3-methyl-1H-pyrazolo[4,3-c]pyridin-4-ylamino)-butan-1-ol]",1 to 10 µM
11,"Cc1n[nH]c2ccnc(N[C@@H](C)c3ccccc3)c12 [Example 29, (3-Methyl-1H-pyrazolo[4,3-c]pyridin-4-yl)-((S)-1-phenyl-ethyl)-amine]",1 to 10 µM
12,"Cc1n[nH]c2ccnc(N[C@@H](CO)C(C)C)c12 [Example 30, (R)-3-Methyl-2-(3-methyl-1H-pyrazolo[4,3-c]pyridin-4-ylamino)-butan-1-ol]",1 to 10 µM
13,"Cc1n[nH]c2ccnc(NC3CCCN(C)C3)c12 (stereo not shown) [Example 31, (1-Methyl-piperidin-3-yl)-(3-methyl-1H-pyrazolo[4,3-c]pyridin-4-yl)-amine]",1 to 10 µM
14,"Cc1n[nH]c2ccnc(NCC(C)(C)C)c12 [Example 32, (2,2-Dimethyl-propyl)-(3-methyl-1H-pyrazolo[4,3-c]pyridin-4-yl)-amine]",1 to 10 µM
15,"Cc1n[nH]c2ccnc(NC3CCCCCC3)c12 [Example 33, Cycloheptyl-(3-methyl-1H-pyrazolo[4,3-c]pyridin-4-yl)-amine]",0.1 to 1 µM
16,"Cc1n[nH]c2ccnc(N[C@H]3CC[C@H](C)CC3)c12 [Example 34, Trans-(4-Methyl-cyclohexyl)-(3-methyl-1H-pyrazolo[4,3-c]pyridin-4-yl)-amine]",0.1 to 1 µM
17,"Cc1n[nH]c2ccnc(N(C)C3CCCCC3)c12 [Example 35, Cyclohexyl-methyl-(3-methyl-1H-pyrazolo[4,3-c]pyridin-4-yl)-amine]",1 to 10 µM
18,"Cc1n[nH]c2ccnc(NC(C)C)c12 [Example 36, Isopropyl-(3-methyl-1H-pyrazolo[4,3-c]pyridin-4-yl)-amine]",0.1 to 1 µM
19,"CC[C@@H](C)Nc1nccc2[nH]nc(C)c12 [Example 37, ((R)-sec-Butyl)-(3-methyl-1H-pyrazolo[4,3-c]pyridin-4-yl)-amine]",1 to 10 µM
20,"Cc1n[nH]c2ccnc(N[C@H](C)C3CCCCC3)c12 [Example 38, ((R)-1-Cyclohexyl-ethyl)-(3-methyl-1H-pyrazolo[4,3-c]pyridin-4-yl)-amine]",1 to 10 µM
21,"Cc1n[nH]c2ccnc(N[C@H](C)C(C)C)c12 [Example 39, ((R)-1,2-Dimethyl-propyl)-(3-methyl-1H-pyrazolo[4,3-c]pyridin-4-yl)-amine]",0.1 to 1 µM
22,"Cc1n[nH]c2ccnc(N[C@@H](C)C(C)C)c12 [Example 40, ((S)-1,2-Dimethyl-propyl)-(3-methyl-1H-pyrazolo[4,3-c]pyridin-4-yl)-amine]",0.1 to 1 µM
23,"CCC(CC)Nc1nccc2[nH]nc(C)c12 [Example 41, (1-Ethyl-propyl)-(3-methyl-1H-pyrazolo[4,3-c]pyridin-4-yl)-amine]",0.1 to 1 µM

# Reference: US20170320870A1 (Medical Research Council Technology, priority 2009, published 2017)
